One experiment addresses T1, rat TAAR1 (Rattus norvegicus, UniProt Q923Y9).
T1 construct: expressed in transfected cells; host or cells: HEK 293 (membrane preparation)
Nature of the experiment: Radioligand binding, rat TAAR1 ([3H]RO5166017).
Details: not given
T1 sequence (Q923Y9 whole entry): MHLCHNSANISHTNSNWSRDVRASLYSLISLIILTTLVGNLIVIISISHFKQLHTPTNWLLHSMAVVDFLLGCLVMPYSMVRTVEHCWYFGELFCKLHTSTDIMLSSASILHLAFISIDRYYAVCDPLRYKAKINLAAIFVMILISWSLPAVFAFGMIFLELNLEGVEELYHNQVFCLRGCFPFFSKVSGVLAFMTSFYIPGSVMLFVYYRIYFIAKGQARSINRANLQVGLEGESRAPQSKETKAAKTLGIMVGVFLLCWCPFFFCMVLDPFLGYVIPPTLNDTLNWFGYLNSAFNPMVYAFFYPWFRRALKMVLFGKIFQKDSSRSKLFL
The term Ki denotes a measure of affinity in units of concentration, obtained from inhibition or displacement. As to `COc1cc(OCC(F)F)c(OC)cc1CC(C)N` (stereo not drawn) [MDFEM, 4-(2,2-difluoroethoxy)-2,5-dimethoxyamphetamine], the affinity corresponds to a Ki of 1.2 ± 0.2 µM.

Compound `COc1cc(OCCF)c(OC)cc1CC(C)N` (stereo not drawn) [MFEM, 2,5-dimethoxy-4-(2-fluoroethoxy)amphetamine] yielded a Ki of 1.64 ± 0.3 µM.

Regarding `C=C(C)COc1cc(OC)c(CC(C)N)cc1OC` (stereo not drawn) [MMALM, 2,5-dimethoxy-4-methallyloxyamphetamine], the “Higher rat TAAR1 affinity than TMA-2 (19) and MIPM (18)” value came to 5 fold; the Ki worked out at 0.63 ± 0.15 µM.

The next experiment has as its target T2, α1A adrenergic receptor (Homo sapiens, UniProt P35348).
T2 construct: expressed in transfected cells; host or cells: Chinese hamster ovary cell line (membrane preparation)
T2 sequence (P35348 1-466): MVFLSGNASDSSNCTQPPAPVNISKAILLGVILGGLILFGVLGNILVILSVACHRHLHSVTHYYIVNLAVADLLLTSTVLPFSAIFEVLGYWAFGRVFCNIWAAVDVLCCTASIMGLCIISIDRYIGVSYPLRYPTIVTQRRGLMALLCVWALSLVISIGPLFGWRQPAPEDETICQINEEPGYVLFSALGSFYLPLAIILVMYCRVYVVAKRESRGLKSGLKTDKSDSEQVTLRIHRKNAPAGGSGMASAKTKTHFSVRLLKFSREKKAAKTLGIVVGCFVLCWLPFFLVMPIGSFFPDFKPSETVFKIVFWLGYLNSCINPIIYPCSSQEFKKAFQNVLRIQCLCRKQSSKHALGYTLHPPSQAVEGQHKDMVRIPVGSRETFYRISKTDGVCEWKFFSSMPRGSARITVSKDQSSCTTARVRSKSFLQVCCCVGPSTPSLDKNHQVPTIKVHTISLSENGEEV
Nature of the experiment: Radioligand binding, α1A adrenergic receptor ([3H]prazosin).
Details: not given
The compound `COc1cc(OCC(F)F)c(OC)cc1CC(C)N` (stereo not drawn) [MDFEM, 4-(2,2-difluoroethoxy)-2,5-dimethoxyamphetamine] yielded a Ki of more than 6.5 µM.

For the compound `COc1cc(OCCF)c(OC)cc1CC(C)N` (stereo not drawn) [MFEM, 2,5-dimethoxy-4-(2-fluoroethoxy)amphetamine], the Ki is more than 6.5 µM.

Compound `C=C(C)COc1cc(OC)c(CC(C)N)cc1OC` (stereo not drawn) [MMALM, 2,5-dimethoxy-4-methallyloxyamphetamine] gave a Ki of more than 6.5 µM.

The target in the next experiment is hNET (Homo sapiens, UniProt P23975). In words: Radioligand binding, NET (N-methyl-[3H]nisoxetine). On the set-up: expressed in transfected cells; host or cells: HEK 293 (membrane preparation).
Chain of hNET (P23975 whole entry): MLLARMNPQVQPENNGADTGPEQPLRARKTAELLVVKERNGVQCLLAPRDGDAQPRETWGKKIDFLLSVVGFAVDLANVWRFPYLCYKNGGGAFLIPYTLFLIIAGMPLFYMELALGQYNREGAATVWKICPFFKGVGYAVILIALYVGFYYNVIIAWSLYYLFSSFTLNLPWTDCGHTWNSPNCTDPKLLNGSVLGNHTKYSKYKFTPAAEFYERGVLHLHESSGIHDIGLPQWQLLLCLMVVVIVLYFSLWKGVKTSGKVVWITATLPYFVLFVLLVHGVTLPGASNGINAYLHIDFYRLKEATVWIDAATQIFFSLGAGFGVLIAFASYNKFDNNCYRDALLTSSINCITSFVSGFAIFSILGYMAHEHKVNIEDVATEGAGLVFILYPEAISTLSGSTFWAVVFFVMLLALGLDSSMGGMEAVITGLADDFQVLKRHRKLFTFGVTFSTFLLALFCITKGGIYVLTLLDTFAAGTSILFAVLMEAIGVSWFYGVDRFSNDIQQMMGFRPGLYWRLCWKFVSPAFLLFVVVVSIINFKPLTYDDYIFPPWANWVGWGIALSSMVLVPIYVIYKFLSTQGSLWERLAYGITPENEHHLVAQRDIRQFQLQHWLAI
Details: not given
`COc1cc(OCC(F)F)c(OC)cc1CC(C)N` (stereo not drawn) [MDFEM, 4-(2,2-difluoroethoxy)-2,5-dimethoxyamphetamine] registered a Ki of more than 9.7 µM.

In turn, `COc1cc(OCCF)c(OC)cc1CC(C)N` (stereo not drawn) [MFEM, 2,5-dimethoxy-4-(2-fluoroethoxy)amphetamine] came in with a Ki of more than 9.7 µM.

Consider `C=C(C)COc1cc(OC)c(CC(C)N)cc1OC` (stereo not drawn) [MMALM, 2,5-dimethoxy-4-methallyloxyamphetamine], for which the inhibition constant Ki was more than 9.7 µM.

In another experiment the target is hDAT (Homo sapiens, UniProt Q01959). Nature of the experiment: Radioligand binding, DAT ([3H]WIN35,428). On the set-up: expressed in transfected cells; host or cells: HEK 293 (membrane preparation).
Chain of hDAT (Q01959 whole entry): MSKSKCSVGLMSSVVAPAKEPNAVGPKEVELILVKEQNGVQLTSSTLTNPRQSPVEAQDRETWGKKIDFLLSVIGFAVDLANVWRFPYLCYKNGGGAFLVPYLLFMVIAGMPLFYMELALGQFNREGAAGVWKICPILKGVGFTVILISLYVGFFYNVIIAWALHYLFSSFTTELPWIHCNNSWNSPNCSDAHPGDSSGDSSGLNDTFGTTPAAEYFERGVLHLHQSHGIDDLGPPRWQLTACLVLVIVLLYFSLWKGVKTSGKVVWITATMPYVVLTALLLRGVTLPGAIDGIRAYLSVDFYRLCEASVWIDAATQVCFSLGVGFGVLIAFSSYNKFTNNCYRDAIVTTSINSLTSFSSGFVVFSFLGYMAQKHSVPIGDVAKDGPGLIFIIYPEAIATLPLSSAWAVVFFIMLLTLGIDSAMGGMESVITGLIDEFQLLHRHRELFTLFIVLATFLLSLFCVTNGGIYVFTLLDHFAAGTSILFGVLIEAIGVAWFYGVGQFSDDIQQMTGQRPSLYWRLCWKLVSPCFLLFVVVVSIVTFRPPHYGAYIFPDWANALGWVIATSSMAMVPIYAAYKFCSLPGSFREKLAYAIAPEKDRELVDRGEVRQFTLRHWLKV
Details: not given
Consider `COc1cc(OCC(F)F)c(OC)cc1CC(C)N` (stereo not drawn) [MDFEM, 4-(2,2-difluoroethoxy)-2,5-dimethoxyamphetamine], for which the Ki is more than 8.7 µM.

Take `COc1cc(OCCF)c(OC)cc1CC(C)N` (stereo not drawn) [MFEM, 2,5-dimethoxy-4-(2-fluoroethoxy)amphetamine]: the Ki was more than 8.7 µM.

`C=C(C)COc1cc(OC)c(CC(C)N)cc1OC` (stereo not drawn) [MMALM, 2,5-dimethoxy-4-methallyloxyamphetamine] showed a Ki of more than 8.7 µM.

Another experiment deals with T3, human 5-HT2B receptor (Homo sapiens, UniProt P41595).
T3 construct: expressed in transfected cells; host or cells: HEK 293
T3 sequence (P41595 whole entry): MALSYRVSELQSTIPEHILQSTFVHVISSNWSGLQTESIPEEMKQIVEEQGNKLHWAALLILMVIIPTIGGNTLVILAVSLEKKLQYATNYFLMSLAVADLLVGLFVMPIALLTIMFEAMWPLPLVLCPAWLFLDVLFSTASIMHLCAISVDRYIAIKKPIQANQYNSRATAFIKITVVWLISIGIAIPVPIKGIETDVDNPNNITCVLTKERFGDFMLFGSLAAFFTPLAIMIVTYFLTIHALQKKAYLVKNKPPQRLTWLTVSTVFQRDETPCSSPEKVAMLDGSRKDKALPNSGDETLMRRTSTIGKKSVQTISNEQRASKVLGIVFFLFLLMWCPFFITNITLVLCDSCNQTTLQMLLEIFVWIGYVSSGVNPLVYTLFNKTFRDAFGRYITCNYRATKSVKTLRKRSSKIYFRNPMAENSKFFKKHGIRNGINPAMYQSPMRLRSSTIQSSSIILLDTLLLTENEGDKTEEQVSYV
In words: Activity at the 5-HT2B receptor (FLIPR calcium, HEK 293 cells). In kind it is cell-based.
Details: not given
The procedure: Activity at the 5-HT2B receptor was examined as previously described ([Luethi et al., 2018]). In summary, HEK 293 cells expressing the human 5-HT2B receptor were seeded at a density of 50,000 cells per well in 96-well poly-D-lysine-coated plates overnight at 37°C. The cells were then incubated in growth medium consisting of high glucose Dulbecco’s modified Eagle’s medium (DMEM) (Invitrogen, Zug, Switzerland), 10% fetal calf serum (non-dialyzed, heat-inactivated), 250 mg/l Geneticin and 10 ml/l PenStrep (Gibco), overnight at 37°C. After removal of the growth medium via snap inversion, calcium indicator Fluo-4-solution (100 µl) was injected into each well (Molecular Probes, Eugene, OR, USA) and incubated for 45 min at 31°C. Afterwards, the Fluo-4 solution was removed (snap inversion) and a further 100 µl of the Fluo-4 solution was added and incubated (45 min, 31°C). Thereafter, using the EMBLA cell washer, the cells were washed just before testing with HBSS and 20 mM HEPES and exposed to 100 µl of assay buffer. The well plate was positioned in the FLIPR and while online, 25 µl of the test compounds diluted in assay buffer were added. Concentration-response curves were calculated using nonlinear regression, and EC50 values were obtained. The maximal activity at the receptors was calculated relative to 5-HT activity which was defined as 100%.
One may read the EC50 as the concentration at which the effect is half-maximal. As to `COc1cc(OCC(F)F)c(OC)cc1CC(C)N` (stereo not drawn) [MDFEM, 4-(2,2-difluoroethoxy)-2,5-dimethoxyamphetamine], the EC50 is 0.13 ± 0.08 µM.

As to `COc1cc(OCCF)c(OC)cc1CC(C)N` (stereo not drawn) [MFEM, 2,5-dimethoxy-4-(2-fluoroethoxy)amphetamine], the concentration for a half-maximal effect (EC50) was determined as 0.27 ± 0.21 µM.

As to `C=C(C)COc1cc(OC)c(CC(C)N)cc1OC` (stereo not drawn) [MMALM, 2,5-dimethoxy-4-methallyloxyamphetamine], the EC50 was found to be 0.029 ± 0.013 µM and the “Higher 5-HT2B activation potency compared to TMA-2 (19)” value stood at 9 fold.

The experiment is the same for the next values; noted with them: HEK293, relative to 5-HT = 100%; read-out: h5-HT2B Activation efficacy max ± SD.
Take `COc1cc(OCC(F)F)c(OC)cc1CC(C)N` (stereo not drawn) [MDFEM, 4-(2,2-difluoroethoxy)-2,5-dimethoxyamphetamine]: the Emax worked out at 21 ± 8%.

On to `COc1cc(OCCF)c(OC)cc1CC(C)N` (stereo not drawn) [MFEM, 2,5-dimethoxy-4-(2-fluoroethoxy)amphetamine], for which the Emax was found to be 41 ± 22%.

Turning to `C=C(C)COc1cc(OC)c(CC(C)N)cc1OC` (stereo not drawn) [MMALM, 2,5-dimethoxy-4-methallyloxyamphetamine], the Emax is 85 to 101%.

In a further experiment the target is T4, 5-HT1A receptor (Homo sapiens, UniProt P08908).
T4 construct: expressed in transfected cells; host or cells: HEK 293 (membrane preparation)
T4 sequence (P08908 1-422): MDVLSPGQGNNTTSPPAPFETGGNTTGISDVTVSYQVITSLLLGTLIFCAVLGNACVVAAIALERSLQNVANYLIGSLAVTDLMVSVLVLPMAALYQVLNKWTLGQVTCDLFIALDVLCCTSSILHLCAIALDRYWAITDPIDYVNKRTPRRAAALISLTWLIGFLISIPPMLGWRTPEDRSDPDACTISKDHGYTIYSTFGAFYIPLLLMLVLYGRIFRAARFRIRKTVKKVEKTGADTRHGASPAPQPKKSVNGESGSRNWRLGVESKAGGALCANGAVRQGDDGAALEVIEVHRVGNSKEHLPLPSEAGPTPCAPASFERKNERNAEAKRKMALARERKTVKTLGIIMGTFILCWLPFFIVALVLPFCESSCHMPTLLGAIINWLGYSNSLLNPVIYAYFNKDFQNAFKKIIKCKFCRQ
In words: Radioligand binding, 5-HT1A receptor ([3H]8-OH-DPAT).
Details: not given
As for `COc1cc(OCC(F)F)c(OC)cc1CC(C)N` (stereo not drawn) [MDFEM, 4-(2,2-difluoroethoxy)-2,5-dimethoxyamphetamine], the Ki is more than 5.6 µM.

Take `COc1cc(OCCF)c(OC)cc1CC(C)N` (stereo not drawn) [MFEM, 2,5-dimethoxy-4-(2-fluoroethoxy)amphetamine]: the Ki was more than 5.6 µM.

The next experiment has as its target T5, 5-HT2C receptor (Homo sapiens, UniProt P28335).
T5 construct: expressed in transfected cells; host or cells: HEK 293 (membrane preparation)
T5 sequence (P28335 33-458): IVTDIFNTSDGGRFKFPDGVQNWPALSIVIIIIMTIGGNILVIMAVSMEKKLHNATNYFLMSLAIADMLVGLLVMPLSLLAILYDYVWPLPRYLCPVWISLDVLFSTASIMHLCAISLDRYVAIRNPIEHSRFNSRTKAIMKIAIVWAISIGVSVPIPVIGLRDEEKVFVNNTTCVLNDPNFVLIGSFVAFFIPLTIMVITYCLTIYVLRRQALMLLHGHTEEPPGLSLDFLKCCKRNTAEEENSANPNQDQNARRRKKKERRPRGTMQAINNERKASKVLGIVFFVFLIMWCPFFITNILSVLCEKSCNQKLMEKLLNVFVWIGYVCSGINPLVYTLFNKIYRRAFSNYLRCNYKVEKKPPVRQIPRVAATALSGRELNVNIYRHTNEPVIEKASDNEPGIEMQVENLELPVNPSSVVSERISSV
In words: biochemical. In kind it is binding.
Details: not given
On to `COc1cc(OCC(F)F)c(OC)cc1CC(C)N` (stereo not drawn) [MDFEM, 4-(2,2-difluoroethoxy)-2,5-dimethoxyamphetamine], for which the “Increase in 5-HT2C binding affinity compared to MFEM (15)” value is 2 fold.

For the compound `C=C(C)COc1cc(OC)c(CC(C)N)cc1OC` (stereo not drawn) [MMALM, 2,5-dimethoxy-4-methallyloxyamphetamine], the “Enhancement of 5-HT2C binding affinity compared to TMA-2 (19)” value came to 18 fold.

Staying with this experiment, now noted: [3H]mesulgerine; read-out: h5-HT2C Receptor binding Ki ± SD.
With `COc1cc(OCC(F)F)c(OC)cc1CC(C)N` (stereo not drawn) [MDFEM, 4-(2,2-difluoroethoxy)-2,5-dimethoxyamphetamine], the Ki is 6.7 ± 2.4 µM.

Turning to `COc1cc(OCCF)c(OC)cc1CC(C)N` (stereo not drawn) [MFEM, 2,5-dimethoxy-4-(2-fluoroethoxy)amphetamine], the Ki was found to be 11 ± 3 µM.

Turning to `C=C(C)COc1cc(OC)c(CC(C)N)cc1OC` (stereo not drawn) [MMALM, 2,5-dimethoxy-4-methallyloxyamphetamine], the Ki amounted to 0.29 ± 0.11 µM.

A further experiment addresses T6, α2A adrenergic receptor (Homo sapiens, UniProt P08913).
T6 construct: expressed in transfected cells; host or cells: Chinese hamster lung cell line (membrane preparation)
T6 sequence (P08913 1-465): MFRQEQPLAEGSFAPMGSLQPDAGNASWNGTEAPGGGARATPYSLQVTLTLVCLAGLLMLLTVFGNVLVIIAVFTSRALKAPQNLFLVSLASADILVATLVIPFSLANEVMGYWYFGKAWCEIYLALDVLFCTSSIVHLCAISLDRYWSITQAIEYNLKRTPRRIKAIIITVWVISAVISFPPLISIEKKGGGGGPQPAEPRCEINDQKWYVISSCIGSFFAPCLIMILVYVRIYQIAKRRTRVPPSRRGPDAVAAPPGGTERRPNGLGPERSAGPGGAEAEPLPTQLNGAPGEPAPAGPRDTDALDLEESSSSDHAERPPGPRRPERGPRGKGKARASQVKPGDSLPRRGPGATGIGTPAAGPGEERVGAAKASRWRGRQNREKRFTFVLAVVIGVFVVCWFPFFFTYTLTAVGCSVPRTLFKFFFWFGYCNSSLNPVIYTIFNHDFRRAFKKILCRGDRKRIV
In words: Radioligand binding, α2A adrenergic receptor ([3H]rauwolscine).
Details: not given
For `COc1cc(OCC(F)F)c(OC)cc1CC(C)N` (stereo not drawn) [MDFEM, 4-(2,2-difluoroethoxy)-2,5-dimethoxyamphetamine], the inhibition constant Ki is more than 4.8 µM.

Compound `COc1cc(OCCF)c(OC)cc1CC(C)N` (stereo not drawn) [MFEM, 2,5-dimethoxy-4-(2-fluoroethoxy)amphetamine] displayed a Ki of more than 4.8 µM.

For `C=C(C)COc1cc(OC)c(CC(C)N)cc1OC` (stereo not drawn) [MMALM, 2,5-dimethoxy-4-methallyloxyamphetamine], the affinity, expressed as Ki, was 2.4 ± 0.2 µM.
